In US8314255B2, “Use of phthalimide and/or sulphonamide derivatives in the treatment of diseases which require reducing the TNF- α levels and an exogenous source of nitric oxide, phthalimide derivatives, sulphonamide derivatives, and a method for obtaining a sulphonamide derivative” (priority 2007, dated 2012):
“Also recorded” adds a separate entry of the source.

What was measured:
K562 cells = assay: Cell viability in K562 culture (trypan blue); format: cell-based, human
Method: (§1) The human leukemia cell line K562 ATCC (American Type Culture Collection), Philadelphia, Pa., USA was used. The cells were cultured in DMEM median (Dulbecco's Modified Eagle Medium, Invitrogen, USA) containing 10% of fetal bovine serum and glutamine. The cells were maintained at 37° C. under a 5% CO2 atmosphere. For the experiments, the cells were incubated at a density of 1×10^5 cells/mL. In order to carry out the culture with hemin (30 uM), it was added 72 hours before the beginning of the experiment with the desired compound.
(§2) The 0-hour time consisted in removing non-treated K562 cells. From this point, the respective compounds were added at the desired concentrations (5, 30, 60 and 100 uM), the cells were then maintained for […] under culture, without a new addition of any compound or substitution of the culture medium. Cell collections were performed at the following times: 0, 24, 48, 72 and 96 hours. The morphology of the cells was analyzed at these points through cytospin slides stained with Leishman and the cell viability was performed by staining with trypan blue in a Neuberger's chamber.

gamma-globin mRNA = assay: Gamma-globin gene expression in K562 cell culture by Real Time PCR; format: cell-based, human; details: for gene expression of gamma-globin: K562 erythroleukemic cells, Real Time PCR, 5-100 μM, 24-96 h
Method: as §1, §2
The extraction method with TRIzol reagent (Gibco-BRL, Gaithersburg, Md.) according to the manufacturer's instructions was used in order to obtain the RNA from K562. The sample containing K562 and TRIzol was incubated for 5 minutes at room temperature in order to achieve complete dissociation of the nucleoproteic complexes, 200 μL of chloroform (CHCl3) was added and thoroughly stirred, and incubation was again performed by 5 minutes at room temperature. After centrifugation for 15 minutes at 19,000 g at a temperature of 4° C., the supernatant was obtained and stored in another tube, proceeding immediately to the step of precipitation with 500 μL of cold isopropanol. After homogenization, a new incubation was carried out for 10 minutes at room temperature, followed by centrifugation for 10 minutes at 19,000 g at 4° C. The supernatant was disposed of and 800 μL of 70% cold ethanol was added to the precipitate, with a new centrifugation being carried out for 5 minutes at 14,000 at 4° C. […]
The RNA samples obtained were subjected to the complementary DNA (cDNA) synthesis using the Superscript III RTTM kit (Invitrogen, Life Technologies). After reading in a spectrophotometer (Gene Quant-Pharmacia, USA) and quantification, 3 μg of RNA were treated with the enzyme DNase I (Invitrogen, Life Technologies), for removal of contaminant DNA. […]
After reading in a spectrophotometer (Gene Quant-Pharmacia, USA) and quantification, cDNA aliquots were used as template in quantitative real-time PCR reactions. The technique consists in optically monitoring the fluorescence emitted during the PCR reaction, by means of the binding of a specific probe or dye to the newly synthesized strand. […]

SMILES | cell viability (K562 cells; K562 assays with and without hemin, at the concentrations used) | gene expression of gamma-globin in the presence of hemin versus absence of hemin (gamma-globin mRNA; K562 cells, hemin 30 uM, compared to the control) | gene expression of gamma-globin (gamma-globin mRNA) | cell viability (K562 cells; at 0 h, pattern maintained during the assay) | concentration showing activity on gamma-globin expression (gamma-globin mRNA; K562 cells, 48 hours)
O=C1c2ccccc2C(=O)N1c1ccc(CCO[N+](=O)[O-])cc1 [Compound IE, 2-[4-(1,3-dioxo-1,3-dihydro-2H-isoindol-2-yl)phenyl]ethyl nitrate] | higher than 90% | did not show a significantly higher activity | increasing the gene expression of gamma-globin | – | –
Nc1ccc(S(=O)(=O)NO)cc1 [Compound IIA, 4-amino-N-hydroxybenzenesulphonamide] | – | – | higher activity than the control; also recorded: higher than the increase provided by compound IE | 97% | 5 µM
